Assay results: publication PMC10360056, “Chemical Evolution of Amphiphilic Xenopeptides for Potentiated Cas9 Ribonucleoprotein Delivery” (Journal of the American Chemical Society, 2023)

What was measured:
[1] = Dilution stability of Cas9 RNP nanocarriers (DLS); format: physicochemical; details: prepared at 375 nM RNP, diluted with HBG, 0.1 nM RNP
Procedure: LogD7.4 determination of xenopeptides
Octanol-water partition coefficient D at pH 7.4 (logD7.4) was determined as previously reported with slight modification.5
Scheme S3 illustrates the logD7.4 determination procedures of all xenopeptides in this study. Briefly, 10 μL of 10 mg/mL xenopeptides in water were diluted with 90 μL HEPES buffer (20 mM, pH 7.4) in 1.5 mL reaction tubes. 100 μL n-octanol were then added. The tubes were shaken at 1400 rpm for 24 h. Afterwards, the tubes were centrifuged followed by storage at 4 °C for 1 h to separate n-octanol and water phases. 70 μL of each phase were injected for HPLC analysis. The extinction at 280 nm was monitored and the peak area (A) of the xenopeptides was calculated. LogD7.4 was calculated as log(Aoctanol / Awater).
All experiments were performed in triplicate.
Preparation of Cas9 RNP and Cas9 RNP/ssDNA nanocarriers […]
The hydrodynamic size, PDI and zeta potential of Cas9 RNP nanocarriers were measured by DLS using a Zetasizer Nano ZS (Malvern Instruments, UK). […] The hydrodynamic size of Cas9 RNP nanocarriers containing 1.25 μg Cas9 protein and 0.25 μg sgRNA (Cas9/sgRNA, 1:1 molar ratio) in 100 μL HBG was measured.
Afterwards, 700 μL HEPES buffer (20 mM, pH 7.4) were added to each sample and the soluti on was mixed for the zeta potential measurement. […] The size and zeta potential of diluted samples were measured as described above. […]

HeLa WT cells [2] = experiment: Cellular uptake of Cas9 RNP nanocarriers (flow cytometry); format: cell-based; details: 75 nM RNP, 20 % ATTO488-sgRNA, 4 h, flow cytometry MFI
Procedure: (§1) sgRNA amount in naked Cas9/sgRNA ribonucleoproteins (Cas9 RNPs) or Cas9 RNP nanocarriers were determined using a Quant-iTTM RiboGreen® RNA assay kit (Invitrogen, CA, USA). 50 μL of naked Cas9 RNPs or Cas9 RNP nanocarriers con-taining 250 ng Cas9 protein and 50 ng sgRNA were mixed with 50 μL of TE buffer and were added to the 96-well plate. The plate was incubated for 10 min. Afterwards, 100 μL of Ribogreen solution (diluted 1:100 in TE buffer) was added to each well.
(§2) The plate was incubated for another 5 min. Ribogreen fluorescence intensity was detected using a microplate reader (Spectra-fluor Plus, Tecan, Männedorf, Switzerland) with excitation and emission wavelength of 485 and 528 nm, respectively. […]
(§3) Cells were harvested and resuspended in 600 μL of FACS buffer (PBS buffer containing 10 % FBS). […] The DAPI signal and BFP fluorescence were detected with 405 nm excitation and 450 nm emission. The eGFP and ATTO488 fluorescence was assayed with 488 nm excitation and 530 nm emission. The ATTO647N fluorescence was assayed with 640 nm excitation and 670 nm emission. Ten thousand of isolated live cells were counted and evaluated. The data were analyzed using FlowJo 7.6.5 by FlowJo, LLC (Becton, Dickinson and Company, USA).
(§4) Cell viability was determined using an MTT assay. […]
(§5) Cellular uptake of Cas9 RNP nanocarriers was evaluated by flow cytometry and confocal laser scanning microscopy (CLSM). […]

HeLa WT cells [3] = experiment: Endocytosis pathway study with inhibitors; format: cell-based; details: 1 mM amiloride 2 h, 75 nM RNP, 4 h, flow cytometry
Procedure: as §1, §2, §3, §4, §5

nanocarrier size detectability upon dilution [1]: still detectable
Structure (SMILES): CCCCC/C=C\C/C=C\CCCCCCCC(=O)NCCCC[C@H](NC(=O)CCCCCCC/C=C\C/C=C\CCCCC)C(=O)NCCCC[C@H](NC(=O)c1cc2ccccc2cc1C(=O)NCCNCCNCCNCCNC(=O)[C@H](Cc1ccc(O)cc1)NC(=O)[C@H](Cc1ccc(O)cc1)NC(=O)[C@H](Cc1ccc(O)cc1)NC(=O)[C@@H](N)CCCCN=[N+]=[N-])C(=O)NCCNCCNCCNCCNC(=O)c1cc2ccccc2cc1C(=O)N[C@@H](Cc1ccc(O)cc1)C(=O)N[C@@H](Cc1ccc(O)cc1)C(=O)N[C@@H](Cc1ccc(O)cc1)C(=O)O [Ntp1-LinA]
enhanced sgRNA uptake compared to the Stp-based analogue (HeLa WT cells [2]): 7.3 fold | Cas9 RNP uptake after pretreatment with amiloride (macropinocytosis) (HeLa WT cells [3]): blocked
